Results from patent US7074789B2, “Kinase inhibitors” (Amgen Inc., priority 1999, dated 2006).

Assays:
Assay type in all cases: biochemical
Lyn = target: T1, Lyn (Homo sapiens, UniProt P07948); test: Kinase inhibition assay (33P transfer), Lyn; conditions: Table 6, Lyn-1 kinase inhibition class
T1 construct: Kinases are expressed as either kinase domains or full length constructs; made in house
How it was run: (§1)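 Steps: coat wells with poly(Glu,Tyr) 4:1 or poly(Arg,Ser) 3:1; add purified kinase, [33P]ATP and inhibitor; incubate; wash with 0.5% phosphoric acid; add liquid scintillant; count. IC50 corresponds to half-maximal reduction of bound 33P.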

Src = target: T2, Src (Homo sapiens, UniProt P12931); test: Kinase inhibition assay (33P transfer), Src; conditions: Table 6, Src-1 kinase inhibition class
T2 construct: Kinases are expressed as either kinase domains or full length constructs; made in house
T2 sequence (P12931 whole entry, species assumed, the tested form may be a part): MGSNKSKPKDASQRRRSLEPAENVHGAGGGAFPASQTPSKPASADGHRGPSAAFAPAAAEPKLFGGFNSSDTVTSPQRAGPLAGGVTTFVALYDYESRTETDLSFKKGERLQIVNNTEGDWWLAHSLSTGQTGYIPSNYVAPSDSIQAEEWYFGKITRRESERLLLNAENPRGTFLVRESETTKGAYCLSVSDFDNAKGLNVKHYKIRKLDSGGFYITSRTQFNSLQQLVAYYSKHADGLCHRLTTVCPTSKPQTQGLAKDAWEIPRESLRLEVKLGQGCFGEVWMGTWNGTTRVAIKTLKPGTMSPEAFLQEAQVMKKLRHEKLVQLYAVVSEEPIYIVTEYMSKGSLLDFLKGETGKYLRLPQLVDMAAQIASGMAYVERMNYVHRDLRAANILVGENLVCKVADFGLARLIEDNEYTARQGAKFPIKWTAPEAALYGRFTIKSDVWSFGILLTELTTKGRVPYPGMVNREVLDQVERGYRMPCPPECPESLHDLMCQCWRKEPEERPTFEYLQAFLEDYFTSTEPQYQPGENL
How it was run: as §1

Fyn = target: T3, Fyn (Homo sapiens, UniProt P06241); test: Kinase inhibition assay (33P transfer), Fyn; conditions: read-out: Fyn-1
T3 construct: Kinases are expressed as either kinase domains or full length constructs; made in house
T3 sequence (P06241 whole entry, species assumed, the tested form may be a part): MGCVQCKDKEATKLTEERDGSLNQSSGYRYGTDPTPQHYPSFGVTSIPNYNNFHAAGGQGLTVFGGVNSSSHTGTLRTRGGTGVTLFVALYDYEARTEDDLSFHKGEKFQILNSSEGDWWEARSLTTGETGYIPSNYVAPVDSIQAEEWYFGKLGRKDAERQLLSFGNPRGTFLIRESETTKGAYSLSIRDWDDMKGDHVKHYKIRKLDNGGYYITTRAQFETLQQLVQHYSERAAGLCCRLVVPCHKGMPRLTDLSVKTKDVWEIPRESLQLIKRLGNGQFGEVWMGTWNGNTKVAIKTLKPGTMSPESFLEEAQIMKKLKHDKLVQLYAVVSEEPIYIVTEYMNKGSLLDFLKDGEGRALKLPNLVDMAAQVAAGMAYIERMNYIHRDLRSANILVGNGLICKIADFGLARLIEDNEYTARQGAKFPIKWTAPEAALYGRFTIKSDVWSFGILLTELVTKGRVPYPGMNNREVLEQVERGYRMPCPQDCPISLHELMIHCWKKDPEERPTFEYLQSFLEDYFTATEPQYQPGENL
How it was run: as §1

Flt-1 = target: T4, Flt-1 (Homo sapiens, UniProt P17948); test: Kinase inhibition assay (33P transfer), Flt-1
T4 construct: Kinases are expressed as either kinase domains or full length constructs; made in house
T4 sequence (P17948 27-1338, species assumed): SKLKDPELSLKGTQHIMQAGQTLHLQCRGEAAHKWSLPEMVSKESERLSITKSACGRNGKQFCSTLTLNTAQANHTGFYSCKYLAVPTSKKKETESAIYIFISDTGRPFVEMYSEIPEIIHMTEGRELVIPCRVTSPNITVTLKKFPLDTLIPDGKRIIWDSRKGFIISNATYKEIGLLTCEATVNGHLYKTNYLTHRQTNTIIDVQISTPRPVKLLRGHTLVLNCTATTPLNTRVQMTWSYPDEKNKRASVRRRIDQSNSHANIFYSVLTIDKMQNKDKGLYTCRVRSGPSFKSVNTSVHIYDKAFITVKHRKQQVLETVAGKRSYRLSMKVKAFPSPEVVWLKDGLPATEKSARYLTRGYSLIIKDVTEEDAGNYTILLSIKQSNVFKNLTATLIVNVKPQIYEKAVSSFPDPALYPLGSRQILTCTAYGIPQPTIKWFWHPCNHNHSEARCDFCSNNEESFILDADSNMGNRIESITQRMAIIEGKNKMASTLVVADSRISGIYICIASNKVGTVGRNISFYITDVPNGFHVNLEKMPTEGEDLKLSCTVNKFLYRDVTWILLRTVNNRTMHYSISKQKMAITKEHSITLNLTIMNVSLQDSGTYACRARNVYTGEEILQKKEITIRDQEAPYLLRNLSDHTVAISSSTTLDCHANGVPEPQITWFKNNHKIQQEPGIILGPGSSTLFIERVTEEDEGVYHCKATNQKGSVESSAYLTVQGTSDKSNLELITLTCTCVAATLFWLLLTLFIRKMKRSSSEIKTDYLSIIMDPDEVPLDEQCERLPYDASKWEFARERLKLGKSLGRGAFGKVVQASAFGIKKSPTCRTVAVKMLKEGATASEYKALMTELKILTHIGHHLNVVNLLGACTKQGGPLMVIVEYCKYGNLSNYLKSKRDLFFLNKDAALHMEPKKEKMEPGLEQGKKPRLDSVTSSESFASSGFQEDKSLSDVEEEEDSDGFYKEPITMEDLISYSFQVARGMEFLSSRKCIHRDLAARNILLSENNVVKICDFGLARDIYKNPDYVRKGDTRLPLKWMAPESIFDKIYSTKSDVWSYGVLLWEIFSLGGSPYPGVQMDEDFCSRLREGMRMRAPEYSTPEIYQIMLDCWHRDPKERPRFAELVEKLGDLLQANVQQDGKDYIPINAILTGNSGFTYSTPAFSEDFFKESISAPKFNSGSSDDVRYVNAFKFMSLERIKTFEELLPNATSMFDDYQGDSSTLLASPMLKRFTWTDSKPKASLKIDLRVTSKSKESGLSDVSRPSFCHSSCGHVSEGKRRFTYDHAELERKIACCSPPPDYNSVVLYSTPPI
How it was run: as §1

EPHB4 = target: T5, EPHB4 (Homo sapiens, UniProt P54760); test: Kinase inhibition assay (33P transfer), EPHB4; conditions: read-out: EPHB4-1
T5 construct: Kinases are expressed as either kinase domains or full length constructs; made in house
T5 sequence (P54760 16-987): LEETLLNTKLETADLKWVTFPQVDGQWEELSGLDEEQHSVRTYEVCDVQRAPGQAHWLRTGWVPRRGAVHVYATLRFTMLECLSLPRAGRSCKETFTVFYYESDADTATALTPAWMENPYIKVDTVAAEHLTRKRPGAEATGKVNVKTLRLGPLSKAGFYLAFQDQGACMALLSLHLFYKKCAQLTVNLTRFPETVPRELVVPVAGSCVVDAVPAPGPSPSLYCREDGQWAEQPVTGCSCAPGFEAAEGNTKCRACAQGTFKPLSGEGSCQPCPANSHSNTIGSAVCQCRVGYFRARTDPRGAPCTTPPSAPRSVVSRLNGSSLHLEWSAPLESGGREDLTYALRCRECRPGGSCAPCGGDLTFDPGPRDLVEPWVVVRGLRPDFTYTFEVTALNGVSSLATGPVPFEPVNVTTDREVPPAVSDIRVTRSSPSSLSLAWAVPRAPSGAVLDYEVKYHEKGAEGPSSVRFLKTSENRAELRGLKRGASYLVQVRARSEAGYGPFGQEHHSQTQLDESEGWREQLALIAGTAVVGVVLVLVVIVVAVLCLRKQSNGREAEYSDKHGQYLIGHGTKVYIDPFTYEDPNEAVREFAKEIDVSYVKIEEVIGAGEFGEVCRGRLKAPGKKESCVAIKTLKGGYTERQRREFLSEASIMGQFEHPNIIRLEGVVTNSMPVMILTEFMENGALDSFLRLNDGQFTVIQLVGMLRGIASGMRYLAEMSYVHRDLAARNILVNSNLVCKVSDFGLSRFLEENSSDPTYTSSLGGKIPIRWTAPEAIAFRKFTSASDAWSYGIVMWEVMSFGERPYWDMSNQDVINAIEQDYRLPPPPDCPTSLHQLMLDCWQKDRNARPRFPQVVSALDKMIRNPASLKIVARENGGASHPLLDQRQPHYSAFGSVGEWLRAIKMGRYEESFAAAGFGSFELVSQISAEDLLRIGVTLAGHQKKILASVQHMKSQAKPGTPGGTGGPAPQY

Hck-1 = target: T6, Hck-1 (Homo sapiens, UniProt P08631); test: Kinase inhibition assay (33P transfer), Hck; conditions: Table 6, Hck-1 kinase inhibition class
T6 construct: Kinases are expressed as either kinase domains or full length constructs; made in house

ErbB4 = target: T7, ErbB4 (Homo sapiens, UniProt Q15303); test: Kinase inhibition assay (33P transfer), ErbB4; conditions: read-out: ErbB4-1
T7 construct: Kinases are expressed as either kinase domains or full length constructs; made in house

Ret-1 = target: T8, Ret-1 (Homo sapiens, UniProt P07949); test: Kinase inhibition assay (33P transfer), Ret; conditions: Table 6, Ret-1 kinase inhibition class
T8 construct: Kinases are expressed as either kinase domains or full length constructs; made in house

FGFR1 = target: T9, FGFR1 (Homo sapiens, UniProt P11362); test: Kinase inhibition assay (33P transfer), FGFR1; conditions: read-out: FGFR1-1
T9 construct: Kinases are expressed as either kinase domains or full length constructs; made in house

Lck = target: T10, Lck (Homo sapiens, UniProt P06239); test: Kinase inhibition assay (33P transfer), Lck; conditions: read-out: Lck-1
T10 construct: Kinases are expressed as either kinase domains or full length constructs; made in house
T10 sequence (P06239 whole entry, species assumed, the tested form may be a part): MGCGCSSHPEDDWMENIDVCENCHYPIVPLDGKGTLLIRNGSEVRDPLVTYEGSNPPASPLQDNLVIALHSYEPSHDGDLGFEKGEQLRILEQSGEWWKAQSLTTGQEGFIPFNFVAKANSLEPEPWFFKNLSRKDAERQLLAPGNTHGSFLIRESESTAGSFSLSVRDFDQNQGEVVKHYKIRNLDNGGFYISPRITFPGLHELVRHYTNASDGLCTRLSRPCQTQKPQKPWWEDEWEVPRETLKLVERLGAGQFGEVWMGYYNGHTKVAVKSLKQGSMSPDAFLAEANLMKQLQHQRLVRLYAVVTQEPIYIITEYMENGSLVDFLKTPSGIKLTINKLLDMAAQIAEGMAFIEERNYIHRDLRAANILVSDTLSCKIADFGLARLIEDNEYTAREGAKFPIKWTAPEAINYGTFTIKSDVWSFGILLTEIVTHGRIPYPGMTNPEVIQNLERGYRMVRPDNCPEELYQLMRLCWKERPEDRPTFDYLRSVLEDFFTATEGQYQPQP
How it was run: (§2)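 Radiometric readout: 33P incorporated into surface-bound poly(Glu,Tyr) 4:1 or poly(Arg,Ser) 3:1 is counted by liquid scintillation after a 0.5% phosphoric acid wash. Enzymes were GST or polyHis fusions (kinase domain or full length) from E. coli or High Five insect cells.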

Zap-70 = target: T11, Zap-70 (Homo sapiens, UniProt P43403); test: Kinase inhibition assay (33P transfer), Zap-70; conditions: read-out: Zap-1
T11 construct: Kinases are expressed as either kinase domains or full length constructs; made in house
T11 sequence (P43403 1-619): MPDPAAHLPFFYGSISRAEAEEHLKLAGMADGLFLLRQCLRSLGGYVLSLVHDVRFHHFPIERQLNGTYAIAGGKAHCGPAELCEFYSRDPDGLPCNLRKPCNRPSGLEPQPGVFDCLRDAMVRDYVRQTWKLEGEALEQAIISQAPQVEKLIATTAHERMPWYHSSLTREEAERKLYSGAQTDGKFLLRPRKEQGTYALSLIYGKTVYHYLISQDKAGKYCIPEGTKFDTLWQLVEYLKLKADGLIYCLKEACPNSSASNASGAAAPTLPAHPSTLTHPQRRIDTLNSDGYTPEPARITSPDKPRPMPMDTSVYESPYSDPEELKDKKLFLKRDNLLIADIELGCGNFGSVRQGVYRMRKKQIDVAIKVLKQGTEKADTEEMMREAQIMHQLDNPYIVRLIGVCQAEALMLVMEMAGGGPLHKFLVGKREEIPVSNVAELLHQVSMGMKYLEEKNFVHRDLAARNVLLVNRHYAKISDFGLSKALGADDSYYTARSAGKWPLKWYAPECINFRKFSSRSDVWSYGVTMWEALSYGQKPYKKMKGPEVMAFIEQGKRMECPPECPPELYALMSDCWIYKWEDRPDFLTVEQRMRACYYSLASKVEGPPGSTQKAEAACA
How it was run: as §2

Itk = target: T12, Itk (Homo sapiens, UniProt Q08881); test: Kinase inhibition assay (33P transfer), Itk; conditions: read-out: Itk-1
T12 construct: Kinases are expressed as either kinase domains or full length constructs; made in house
T12 sequence (Q08881 1-620): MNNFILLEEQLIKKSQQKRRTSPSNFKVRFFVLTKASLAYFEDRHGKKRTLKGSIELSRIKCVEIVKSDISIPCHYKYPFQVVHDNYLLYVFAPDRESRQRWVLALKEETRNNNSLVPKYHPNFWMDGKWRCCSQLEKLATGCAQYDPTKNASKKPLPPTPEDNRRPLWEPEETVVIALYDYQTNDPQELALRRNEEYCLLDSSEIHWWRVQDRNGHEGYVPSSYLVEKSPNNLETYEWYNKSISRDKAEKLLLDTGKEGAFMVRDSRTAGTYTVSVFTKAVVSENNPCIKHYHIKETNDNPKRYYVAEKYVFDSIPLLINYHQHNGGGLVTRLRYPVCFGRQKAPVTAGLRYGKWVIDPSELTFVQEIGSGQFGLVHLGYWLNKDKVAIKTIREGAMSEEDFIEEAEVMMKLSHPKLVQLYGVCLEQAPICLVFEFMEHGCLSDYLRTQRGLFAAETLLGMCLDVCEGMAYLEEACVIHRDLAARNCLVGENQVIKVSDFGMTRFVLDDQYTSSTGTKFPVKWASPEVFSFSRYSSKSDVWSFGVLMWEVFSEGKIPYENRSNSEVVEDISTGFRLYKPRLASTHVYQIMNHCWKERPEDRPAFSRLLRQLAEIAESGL
How it was run: as §1

EGFR = target: T13, EGFR (Homo sapiens, UniProt P00533); test: Kinase inhibition assay (33P transfer), EGFR; conditions: Table 2, kinase inhibition class; read-out: EGFR-1
T13 construct: Kinases are expressed as either kinase domains or full length constructs; made in house
How it was run: as §1

ErbB2 = target: T14, ErbB2 (Homo sapiens, UniProt P04626); test: Kinase inhibition assay (33P transfer), ErbB2; conditions: read-out: ErbB2-2
T14 construct: Kinases are expressed as either kinase domains or full length constructs; made in house
How it was run: as §1

Kdr = target: T15, Kdr (Homo sapiens, UniProt P35968); test: Kinase inhibition assay (33P transfer), Kdr; conditions: read-out: KDR-1
T15 construct: Kinases are expressed as either kinase domains or full length constructs; made in house
How it was run: as §2

Tek = target: T16, Tek (Homo sapiens, UniProt Q02763); test: Kinase inhibition assay (33P transfer), Tek; conditions: read-out: Tek-1
T16 construct: Kinases are expressed as either kinase domains or full length constructs; made in house
How it was run: as §1

c-Met = target: T17, c-Met (Homo sapiens, UniProt P08581); test: Kinase inhibition assay (33P transfer), c-Met; conditions: Table 2, kinase inhibition class; read-out: Met-1
T17 construct: Kinases are expressed as either kinase domains or full length constructs; made in house
How it was run: as §1

AKT = target: T18, AKT (Homo sapiens, UniProt Q9Y243); test: Kinase inhibition assay (33P transfer), AKT; conditions: Table 2, kinase inhibition class; read-out: AKT3-1
T18 construct: Kinases are expressed as either kinase domains or full length constructs; made in house
T18 sequence (Q9Y243 whole entry, the tested form may be a part): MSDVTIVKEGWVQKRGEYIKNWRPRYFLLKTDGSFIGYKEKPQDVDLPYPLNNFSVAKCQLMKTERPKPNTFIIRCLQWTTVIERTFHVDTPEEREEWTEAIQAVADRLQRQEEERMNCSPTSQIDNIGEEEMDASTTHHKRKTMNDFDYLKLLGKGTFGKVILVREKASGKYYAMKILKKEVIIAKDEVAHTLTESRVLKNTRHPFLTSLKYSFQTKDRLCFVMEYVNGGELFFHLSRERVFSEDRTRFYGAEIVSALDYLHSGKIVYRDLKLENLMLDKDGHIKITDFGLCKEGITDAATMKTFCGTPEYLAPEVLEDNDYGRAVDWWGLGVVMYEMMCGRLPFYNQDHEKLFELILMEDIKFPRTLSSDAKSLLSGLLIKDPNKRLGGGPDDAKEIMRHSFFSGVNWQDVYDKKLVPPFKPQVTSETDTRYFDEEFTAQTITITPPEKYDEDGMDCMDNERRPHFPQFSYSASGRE
How it was run: as §2

IGFR-1 = target: T19, IGFR-1 (Homo sapiens, UniProt P08069); test: Kinase inhibition assay, IGFR-1 (Table 2); conditions: Table 2, kinase inhibition class
T19 construct: Kinases are expressed as either kinase domains or full length constructs; made in house
T19 sequence (P08069 31-1367): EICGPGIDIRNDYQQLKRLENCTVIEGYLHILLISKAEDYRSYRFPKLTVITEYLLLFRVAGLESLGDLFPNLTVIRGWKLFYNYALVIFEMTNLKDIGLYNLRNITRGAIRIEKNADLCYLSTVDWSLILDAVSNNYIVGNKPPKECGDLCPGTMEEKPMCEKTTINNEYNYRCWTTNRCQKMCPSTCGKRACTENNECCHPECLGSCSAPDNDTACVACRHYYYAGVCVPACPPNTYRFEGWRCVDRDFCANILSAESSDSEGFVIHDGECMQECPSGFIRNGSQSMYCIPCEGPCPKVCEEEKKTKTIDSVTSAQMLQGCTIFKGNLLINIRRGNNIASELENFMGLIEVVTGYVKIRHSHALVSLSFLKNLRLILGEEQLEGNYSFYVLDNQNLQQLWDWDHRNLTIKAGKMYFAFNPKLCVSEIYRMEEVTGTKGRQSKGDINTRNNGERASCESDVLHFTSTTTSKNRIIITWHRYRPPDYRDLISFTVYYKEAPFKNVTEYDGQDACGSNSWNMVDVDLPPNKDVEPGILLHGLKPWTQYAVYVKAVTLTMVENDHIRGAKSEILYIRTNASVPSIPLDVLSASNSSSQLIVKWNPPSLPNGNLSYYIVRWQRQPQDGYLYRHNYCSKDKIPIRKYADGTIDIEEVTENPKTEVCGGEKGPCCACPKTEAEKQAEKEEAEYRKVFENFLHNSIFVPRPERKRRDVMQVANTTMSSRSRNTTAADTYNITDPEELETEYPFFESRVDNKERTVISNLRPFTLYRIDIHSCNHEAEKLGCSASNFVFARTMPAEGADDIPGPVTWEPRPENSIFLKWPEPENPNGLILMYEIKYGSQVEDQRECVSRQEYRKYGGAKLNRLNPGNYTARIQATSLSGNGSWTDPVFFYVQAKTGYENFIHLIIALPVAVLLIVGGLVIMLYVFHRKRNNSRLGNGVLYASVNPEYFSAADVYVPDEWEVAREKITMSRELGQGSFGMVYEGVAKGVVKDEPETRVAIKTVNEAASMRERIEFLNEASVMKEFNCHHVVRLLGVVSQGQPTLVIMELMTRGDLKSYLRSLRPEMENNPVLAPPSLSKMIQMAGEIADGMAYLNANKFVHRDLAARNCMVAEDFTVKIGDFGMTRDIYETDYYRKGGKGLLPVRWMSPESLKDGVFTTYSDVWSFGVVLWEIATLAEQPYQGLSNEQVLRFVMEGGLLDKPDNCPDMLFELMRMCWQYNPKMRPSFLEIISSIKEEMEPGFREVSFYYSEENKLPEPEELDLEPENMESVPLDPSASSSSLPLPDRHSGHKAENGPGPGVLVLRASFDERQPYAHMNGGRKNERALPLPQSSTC

PDGFRB = target: T20, PDGFRB (Homo sapiens, UniProt P09619); test: Kinase inhibition assay (33P transfer), PDGFRB; conditions: read-out: PDGFRB-1
T20 construct: Kinases are expressed as either kinase domains or full length constructs; made in house

| SMILES | IC50 (Lyn) [µM] | IC50 (Src) [µM] | IC50 (Fyn) [µM] | IC50 (Flt-1) [µM] | IC50 (EPHB4) [µM] | IC50 (Hck-1) [µM] | IC50 (ErbB4) [µM] | IC50 (Ret-1) [µM] | IC50 (FGFR1) [µM] | IC50 (Lck) [µM] | IC50 (Zap-70) [µM] | IC50 (Itk) [µM] | IC50 (EGFR) [µM] | IC50 (ErbB2) [µM] | IC50 (Kdr) [µM] | IC50 (Tek) [µM] | IC50 (c-Met) [µM] | IC50 (AKT) [µM] | IC50 (IGFR-1) [µM] | IC50 (PDGFRB) [µM] |
| --- | --- | --- | --- | --- | --- | --- | --- | --- | --- | --- | --- | --- | --- | --- | --- | --- | --- | --- | --- | --- |
| COc1cc(Nc2ncnc(-n3c(N)nc4cc(C(F)(F)F)ccc43)n2)cc(OC)c1OC [Compound 292] | 0.867 to 5.2 | 0.867 to 5.2 | 5.2 to 7.59 | 0.867 to 5.2 | 0.867 to 5.2 | > 9.75 | > 9.75 | 0.867 to 5.2 | 7.59 to 9.75 | – | – | – | – | – | – | – | – | – | – | – |
| C=CCNc1ncccc1-c1ncnc(Nc2cc(OC)c(OC)c(OC)c2)n1 [Compound 1076] | > 11.4 | 1.01 to 6.08 | 1.01 to 6.08 | 1.01 to 6.08 | – | > 11.4 | > 11.4 | < 1.01 | 1.01 to 6.08 | < 1.01 | > 11.4 | > 11.4 | > 11.4 | > 11.4 | < 1.01 | > 11.4 | > 11.4 | > 11.4 | > 11.4 | < 1.01 |
| NC(=O)c1ccc(Nc2ncnc(-c3cccnc3NCc3ccccc3)n2)cc1 [Compound 1082] | 6.04 to 8.81 | > 11.3 | > 11.3 | > 11.3 | – | > 11.3 | 1.01 to 6.04 | < 1.01 | > 11.3 | 1.01 to 6.04 | 1.01 to 6.04 | > 11.3 | 1.01 to 6.04 | > 11.3 | < 1.01 | 1.01 to 6.04 | 8.81 to 11.3 | > 11.3 | 6.04 to 8.81 | 1.01 to 6.04 |
| CC(C)Nc1ncccc1-c1ncnc(Nc2ccc(C(N)=O)cc2)n1 [Compound 1084] | < 1.14 | > 12.9 | > 12.9 | > 12.9 | – | > 12.9 | > 12.9 | < 1.14 | > 12.9 | < 1.14 | > 12.9 | 6.87 to 10 | > 12.9 | > 12.9 | 1.14 to 6.87 | > 12.9 | 6.87 to 10 | > 12.9 | > 12.9 | 1.14 to 6.87 |
